Data set [1] relates to washed human thrombocyte suspension. The data set is described as follows: inhibition of lipidperoxidation, thiobarbituric acidic method. It is filed as cell-based. To be noted: induced by N-ethyl-alenicimide, read-out: medium inhibiting concentration, lipidperoxidation. On the procedure:
Whistar hannover male rats weighing 140-160 g were fed for 7 days with a rat fodder supplemented with 1.5% of cholesterol, 0.5% of sodium cholate and 5% of solid fat. […] The blood samples were centrifuged and the serum total cholesterol and the HDL cholesterol were determined by Backmann enzymatic test, while the triglyceride concentration of the serum was determined by Van Handel's method (J. Lab.: Clin. Med. 41, 486 (1953). The amount of the LDL+VLDL was measured by manganese precipitation turbidimetrically (Schurr, P. E., Schulz, J. R., Day, C. E.: Atherosclerosis Drug Discovery Ed.: C. E. Day, Plenum Press, New York 215 (1976). The antiaggreagtion activity was measured in vitro on human plasm being rich in thrombocytes by a Chrono-log aggregometer. The aggregation was induced by ADP, adrenaline, collagen and arachidonic acid. […]

Data set [2] relates to human plasm being rich in thrombocytes. The data set is described as follows: in vitro antiaggregation activity (Chrono-log aggregometer; ADP, adrenaline, collagen, arachidonic acid). It is filed as cell-based. To be noted: for inhibition at 250 µM / inhibition at 500 µM / inhibition at 1000 µM: Homo sapiens. The source says:
(§1) Whistar hannover male rats weighing 140-160 g were fed for 7 days with a rat fodder supplemented with 1.5% of cholesterol, 0.5% of sodium cholate and 5% of solid fat. (Schurr, P. E.; Schultz, J. R., Day, D. E.; Atherosclerosis Drug Discovery Ed.: C. E. Day, Plenum, New York 215 (1976) and Acta Pharm. Hung., 49, 182. (1979) During this time the total cholesterol level of the serum increased with 200-250% compared to the normal level, while the amount of the HDL chloesterol diminished by 45-50%. Groups consisting of six animals were formed. The compounds of the invention were administered orally starting on the fourth day of the addition of the cholesterol fodder and it was continued by the end of the experiments, by the seventh day, in one or two doses. Then after a 18 hour starving the animals were bled to death under etheric narcosis on the 8th day. The blood samples were centrifuged and the serum total cholesterol and the HDL cholesterol were determined by Backmann enzymatic test, while the triglyceride concentration of the serum was determined by Van Handel's method (J. Lab.: Clin. Med. 41, 486 (1953). The amount of the LDL+VLDL was measured by manganese precipitation turbidimetrically (Schurr, P. E., Schulz, J. R., Day, C. E.: Atherosclerosis Drug Discovery Ed.: C. E. Day, Plenum Press, New York 215 (1976). The antiaggreagtion activity was measured in vitro on human plasm being rich in thrombocytes by a Chrono-log aggregometer. The aggregation was induced by ADP, adrenaline, collagen and arachidonic acid. The determination of the inhibition of the lipidperoxidation was carried out by thiobarbituric acidic method with the aid of washed human thrombocyte suspension. The lipidperoxidation was induced by N-ethyl-alenicimide (Arzneimittel-Forschung 29, 981 (1979).

Data set [3] can be described thus: acute toxicity, oral, mice. On the set-up: species or system male and female mice. To be noted: mouse, in vivo, observed 14 days. The source says:
(§2) The acute toxicity of this compound was examined on male and female mice and rats by oral administration.

Data set [4] deals with rats with the cholesterol diet. The data set is described as follows: in vivo test in rats with the cholesterol diet, 10 day treatments (Table 2). To be noted: rat; for LDL + VLDL percentile change / Serum cholesterol percentile change / triglyceride percentile change / HDL cholesterol percentile change: 10 day treatment. The method, then:
as §1, with “Whistar hannover male rats weighing 140-160 g were fed for 7 days with a rat fodder supplemented with 1.5% of cholesterol, 0.5% of sodium cholate and 5% of solid fat.” left out, “The compounds of the invention were administered orally starting on the fourth day of the addition of the cholesterol fodder and it was continued by the end of the experiments, by the seventh day, in one or two doses.” left out, “[…].” for “The determination of the inhibition of the lipidperoxidation was carried out by thiobarbituric acidic method with the aid of washed human thrombocyte suspension.”
The affect of compound no. 0202479 to the rats with the
cholesterol diet in 10 day treatments

Data set [5] can be described thus: acute toxicity, oral, rats. On the set-up: species or system male and female rats. To be noted: rat, in vivo, observed 14 days.
From the text: as §2

Data set [6] deals with rats fed with cholesterol. The data set is described as follows: in vivo antihyperlipoproteinemic test, rats fed cholesterol fodder for 7 days (Table 1). On the set-up: species or system Whistar hannover male rats. To be noted: po, rat, 100.0 mg/kg p.o.
From the text: as §1, with “[…].” for “The determination of the inhibition of the lipidperoxidation was carried out by thiobarbituric acidic method with the aid of washed human thrombocyte suspension.”

Data set [7] relates to platelet aggregation. To be noted: cited from earlier work.
The mark [8] stands for this setting: ADP induced, read-out: Aggregation inhibition, ADP.
Where [9] appears, read: adrenaline induced, read-out: Aggregation inhibition, Adrenaline.
The mark [10] stands for this setting: collagen induced, read-out: Aggregation inhibition, Collagene.

Structures can show the parent of a compound that is named as a salt. Where two headings read alike, the source gives them in different places. A value given as a limit tells only on which side of the number the result lay.

For the compound `C=CCSc1nc2ccc(Cc3ccccc3)cc2[nH]1` [compound 0202479, 5-Benzyl-2-(2-propenylthio)-benzimidazole hydrobromide, hydrochloride and base], the IC50 in data set [1] came out at 24 µM. Further, the “inhibition of aggregation caused by ADP and adrenaline, in words” value in data set [2] (ADP and adrenaline) was “inhibited by the compound-similarly to Clofibrate--in the second phase”. Further, the inhibition (in general, the share of the control response that was lost under treatment) at 250 µM in data set [2] (read-out: inhibition of aggregation induced by arachidonic acid) was 100%; in data set [2] (setting [8]), 20%; in data set [2] (setting [9]), 9%; in data set [2] (arachidonic acid induced, read-out: Aggregation inhibition, Arachidonic acid), 100%; in data set [2] (setting [10]) it was 6%. For the same compound, the inhibition at 500 µM in data set [2] (setting [8]) came to 59%; in data set [2] (setting [9]), 16%; in data set [2] (setting [10]), 16%. The inhibition at 1000 µM was determined as 66% in data set [2] (setting [8]), 73% in data set [2] (setting [9]) and 39% in data set [2] (setting [10]). The results for the LD50 at 336 h in data set [3] and in data set [5] were 960 mg/kg and over 2000 mg/kg, respectively. The “effectiveness, in words” value in data set [4] is on record as “remarkably effective”. Moreover, the “LDL + VLDL percentile change” value in data set [4] (10.0 mg/kg p.o.) is -20.8 percentile change; in data set [4] (30.0 mg/kg p.o., ** P 0.01), -48.5 percentile change; in data set [4] (100.0 mg/kg p.o., ** P 0.01), -80.5 percentile change. Besides, the “Serum cholesterol percentile change” value in data set [4] (10.0 mg/kg p.o.) is recorded as -7.8 percentile change; in data set [4] (30.0 mg/kg p.o., * 0.01 P 0.05) it was -41.5 percentile change; in data set [4] (100.0 mg/kg p.o.), -66.3 percentile change. Further, the triglyceride percentile change in data set [4] (10.0 mg/kg p.o.) is recorded as -3.1 percentile change; in data set [4] (30.0 mg/kg p.o., ** P 0.01), -47.7 percentile change; in data set [4] (100.0 mg/kg p.o., ** P 0.01), -55.8 percentile change. Also, the “HDL cholesterol percentile change” value is given as “+47.7 percentile change” in data set [4] (10.0 mg/kg p.o., * 0.01 P 0.05); “+40.1 percentile change” in data set [4] (30.0 mg/kg p.o.); “+56.1 percentile change” in data set [4] (100.0 mg/kg p.o., ** P 0.01).
Regarding `CCOC(=O)C(C)(C)Oc1ccc(Cl)cc1` [Clofibrate, 2-(4-chlorophenoxy)isobutyric ethyl ester, reference compound], the change in vivo at 100 mg/kg in data set [6] (read-out: HDL cholesterol % change) was -20%; in data set [6] (read-out: LDL + VLDL % change), -11.2%; in data set [6] (read-out: serum cholesterol change), -24.7%; in data set [6] (serum, read-out: triglyceride change) it was -20%. The “Serum cholesterol percentile change” value in data set [4] (100.0 mg/kg p.o.) is given as -23.0 percentile change. The “HDL cholesterol percentile change” value in data set [4] (100.0 mg/kg p.o., ** P 0.01) is given as -7.4 percentile change. In data set [4] (100.0 mg/kg p.o., ** P 0.01), the “LDL + VLDL percentile change” value was -37.9 percentile change. Further, the triglyceride percentile change in data set [4] (100.0 mg/kg p.o., ** P 0.01) was -24.5 percentile change. In addition, the IC50 was 100 µM in data set [7] (ADP induced aggregation, read-out: medium inhibitory concentration, ADP); 700 µM in data set [7] (adrenaline induced aggregation, read-out: medium inhibitory concentration, Adrenaline); 5000 µM in data set [7] (arachidonic acid induced aggregation, read-out: medium inhibitory concentration, Arachidonic acid); 1700 µM in data set [7] (collagen induced aggregation, read-out: medium inhibitory concentration, Collagene). The “inhibition of aggregation induced by arachidonic acid, in words” value in data set [7] (compared with compound at 250 μM) was “ineffective”.

The record behind these values is patent publication US4814329A, “Antihyperlipoproteinemic 5-substituted sulfur-containing benzimidazole derivatives” (Richter Gedeon Vegyeszeti Gyar R.T., priority 1985, dated 1989).
